# Values quoted from earlier work as cited in PubChem BioAssay AID1259409 (Chemical Carcinogenesis Research Information System (CCRIS), 2018).
# Tested on: rodent chemically induced tumor inhibition, incidence and multiplicity
# Experiment: CCRIS tumor inhibitor studies
# Conditions: Promoter: NONE USED; for outcome: Dose [Inhibitor]: 3 MG/KG BW IN 0.1 ML CORN OIL 3/WK FOR DURATION OF EXPERIMENT BEGINNING 15 D POST CARCINOGEN DOSE, Target Tissue: Type of Lesion: MAMMARY GLAND: ADENOCARCINOMA, FIBROADENOMA, Dose [Carcinogen]: 5 OR 10 MG IN 0.5 ML CORN OIL ONCE
smiles,measurement,setting,value
CC(C)C[C@H]1C(=O)N2CCC[C@H]2[C@]2(O)O[C@](NC(=O)[C@@H]3C=C4c5cccc6[nH]c(Br)c(c56)C[C@H]4N(C)C3)(C(C)C)C(=O)N12,"tumour outcome (control, treated, inhibition, significance)","Carcinogen: DIMETHYLBENZ[A]ANTHRACENE, 57-97-6, Dose [Inhibitor]: 3 MG/KG BW (0.1 ML) IN CORN OIL 5/WK OR 6/WK FOR 2 WK (11 INJECTIONS) BEGINNING 15 D PRIOR TO CARCINOGEN DOSE AT 35 D OF, Route [Inhibitor]: SUBCUTANEOUS, Species: RAT, Strain/Sex: SPRAGUE-DAWLEY/FEMALE, Target Tissue: Type of Lesion: MAMMARY GLAND: TUMOR, Dose [Carcinogen]: 5 MG/RAT IN CORN OIL ONCE","13/22 (59%), 11/24 (46%), 22%, not significant"
same,outcome,"Carcinogen: DIMETHYLBENZ[A]ANTHRACENE, 57-97-6, MAINTAINED ON 0.5% FA, Route [Inhibitor]: SUBCUTANEOUS, Species: RAT, Strain/Sex: SPRAGUE-DAWLEY/FEMALE","34%, 0%, 100%, not calculated (low dose carcinogen); 38%, 18%, 53%, not calculat"
same,outcome,"Carcinogen: DIMETHYLBENZ[A]ANTHRACENE, 57-97-6, MAINTAINED ON 20% FAT, Route [Inhibitor]: SUBCUTANEOUS, Species: RAT, Strain/Sex: SPRAGUE-DAWLEY/FEMALE","56%, 0%, 100%, not calculated (low dose carcinogen); 58%, 19%, 67%, not calculat"
same,"tumour outcome (control, treated, inhibition, significance)","Carcinogen: DIMETHYLBENZ[A]ANTHRACENE, 57-97-6, Dose [Inhibitor]: 400 UG/100 G BW TOGETHER WITH 25 UG TAMOXIFEN/100 G BW 1/D FOR 20 WK BEGINNING 3 D POST CARCINOGEN DOSE (STUDY DURATION:, Route [Inhibitor]: SUBCUTANEOUS, Species: RAT, Strain/Sex: SPRAGUE-DAWLEY/FEMALE, Target Tissue: Type of Lesion: MAMMARY GLAND: CARCINOMA, Dose [Carcinogen]: 5 MG ONCE AT 53 D OF AGE","85%, 21%, 75%, p<0.001 at 20 wk"
same,"tumour outcome (control, treated, inhibition, significance)","Carcinogen: DIMETHYLBENZ[A]ANTHRACENE, 57-97-6, Dose [Inhibitor]: 400 UG/100 G BW TOGETHER WITH 25 UG TAMOXIFEN/100 G BW 1/D FOR 20 WK BEGINNING 3 D POST CARCINOGEN DOSE (STUDY DURATION:, Route [Inhibitor]: SUBCUTANEOUS, Species: RAT, Strain/Sex: SPRAGUE-DAWLEY/FEMALE, Target Tissue: Type of Lesion: MAMMARY GLAND: CARCINOMA, Dose [Carcinogen]: 10 MG ONCE AT 53 D OF AGE","90%, 10%, 89%, p<0.001 at 12 wks"
same,"tumour outcome (control, treated, inhibition, significance)","Carcinogen: DIMETHYLBENZ[A]ANTHRACENE, 57-97-6, Dose [Inhibitor]: 400 UG/100 G BW TOGETHER WITH 25 UG TAMOXIFEN/100 G BW 1/D FOR 26 WK BEGINNING 3 D POST CARCINOGEN DOSE (STUDY DURATION:, Route [Inhibitor]: SUBCUTANEOUS, Species: RAT, Strain/Sex: SPRAGUE-DAWLEY/FEMALE, Target Tissue: Type of Lesion: MAMMARY GLAND: CARCINOMA, Dose [Carcinogen]: 20 MG ONCE AT 53 D OF AGE","100%, 12%, 88%, p<0.001 at 11 wks"
same,"tumour outcome (control, treated, inhibition, significance)","Carcinogen: DIMETHYLBENZ[A]ANTHRACENE, 57-97-6, Dose [Inhibitor]: 400 UG/100 G BW TOGETHER WITH 25 UG TAMOXIFEN/100 G BW 1/D PLUS 68 MG RETINYL ACETATE/KG OF DIET, BEGINNING 3 D POST CAR, Route [Inhibitor]: SUBCUTANEOUS, Species: RAT, Strain/Sex: SPRAGUE-DAWLEY/FEMALE, Target Tissue: Type of Lesion: MAMMARY GLAND: CARCINOMA, Dose [Carcinogen]: 20 MG ONCE AT 53 D OF AGE","100%, 3%, 97%, p<0.001 at 11 wk"
same,"tumour outcome (control, treated, inhibition, significance)","Carcinogen: DIMETHYLBENZ[A]ANTHRACENE, 57-97-6, Dose [Inhibitor]: 400 UG/100 G BW TOGETHER WITH 25 UG TAMOXIFEN/100 G BW 1/D PLUS 204 MG RETINYL ACETATE/KG OF DIET, BEGINNING 3 D POST CA, Route [Inhibitor]: SUBCUTANEOUS, Species: RAT, Strain/Sex: SPRAGUE-DAWLEY/FEMALE, Target Tissue: Type of Lesion: MAMMARY GLAND: CARCINOMA, Dose [Carcinogen]: 10 MG ONCE AT 53 D OF AGE","90%, 5%, 94%, p<0.001 at 12 wk"
same,"tumour outcome (control, treated, inhibition, significance)","Carcinogen: DIMETHYLBENZ[A]ANTHRACENE, 57-97-6, Dose [Inhibitor]: 400 UG/100 G BW TOGETHER WITH 25 UG TAMOXIFEN/100 G BW 1/D PLUS 328 MG RETINYL ACETATE/KG DIET BEGINNING 3 D POST CARCIN, Route [Inhibitor]: SUBCUTANEOUS, Species: RAT, Strain/Sex: SPRAGUE-DAWLEY/FEMALE, Target Tissue: Type of Lesion: MAMMARY GLAND: CARCINOMA, Dose [Carcinogen]: 5 MG ONCE AT 53 D OF AGE","85%, 5%, 94%, p<0.001 at 20 wk"
same,"tumour outcome (control, treated, inhibition, significance)","Carcinogen: ENOVID (NORETHYNODREL WITH MESTRANOL), 8015-30-3, Dose [Inhibitor]: 0.1 MG 1/D FOR 21 MO BEGINNING CONCURRENTLY WITH CARCINOGEN DOSE (STUDY DURATION: 21 MO), Route [Inhibitor]: SUBCUTANEOUS, Species: MOUSE, Strain/Sex: C3H/FEMALE, Target Tissue: Type of Lesion: MAMMARY GLAND: CARCINOMA, Dose [Carcinogen]: 0.1 MG 2/WK FOR 21 MO","30/100 (30%), 10/100 (10%), 67%, p<0.001"
same,"tumour outcome (control, treated, inhibition, significance)","Carcinogen: ESTRONE, 53-16-7, PROGESTERONE, 57-83-0, Carcinogen: ESTRONE, 53-16-7, PROGESTERONE, 57-83-0, Dose [Inhibitor]: 100 UG 1/D FOR 13 WK BEGINNING CONCURRENTLY WITH CARCINOGEN DOSE (STUDY DURATION: NOT STATED, DATA INDICATES 13 WK), Route [Inhibitor]: SUBCUTANEOUS, Species: MOUSE, Strain/Sex: STRAIN-GR/FEMALE, Target Tissue: Type of Lesion: MAMMARY GLAND: PAPILLARY CARCINOMA, Dose [Carcinogen]: 0.5 MG/L FOR 13 WK IN DRINKING WATER BEGINNING AT 15 WK OF AGE, THEN 30 MG PELLET IMPLANT 1/MO BEGINNING AT 15 WK OF AGE","58/119 (49%), 34/119 (29%), 41%, p<0.005"
same,"tumour outcome (control, treated, inhibition, significance)","Carcinogen: ISONIAZID, 54-85-3, Dose [Inhibitor]: 5000 PPM IN DIET STARTING 1 WK PRIOR TO ADMINISTRATION OF CARCINOGEN UNTIL END OF EXPERIMENT (STUDY DURATION: APPROXIMAT, Route [Inhibitor]: ORAL, Species: MOUSE, Strain/Sex: SWISS/MALE, FEMALE, Target Tissue: Type of Lesion: LIVER AND LUNG: COMBINED TUMORS, Dose [Carcinogen]: 1.1 MG/D 5 D/WK UNTIL 25 MO OF AGE","16/29 (55%), 4/20 (20%), 64%, p<o.o5"
same,"tumour outcome (control, treated, inhibition, significance)","Carcinogen: N-METHYL-N'-NITRO-N-NITROSOGUANIDINE, 70-25-7, Dose [Inhibitor]: 0, 0.25 MG/KG AS A SUSPENSION IN OLIVE OIL 1/2 D BEGINNING POST CARCINOGEN DOSE AND CONTINUING FOR DURATION OF STUDY (ST, Route [Inhibitor]: SUBCUTANEOUS, Species: RAT, Strain/Sex: WISTAR/MALE, Target Tissue: Type of Lesion: STOMACH: ADENOCARCINOMA, Dose [Carcinogen]: 50 UG/ML IN DRINKING WATER FOR 25 WK","12/19 (63%), 12/20 (60%), 5%, not calculated"
same,"tumour outcome (control, treated, inhibition, significance)","Carcinogen: N-METHYL-N'-NITRO-N-NITROSOGUANIDINE, 70-25-7, Dose [Inhibitor]: 0, 0.5 MG/KG AS A SUSPENSION IN OLIVE OIL 1/2 D BEGINNING POST CARCINOGEN DOSE AND CONTINUING FOR DURATION OF STUDY (STU, Route [Inhibitor]: SUBCUTANEOUS, Species: RAT, Strain/Sex: WISTAR/MALE, Target Tissue: Type of Lesion: STOMACH: ADENOCARCINOMA, Dose [Carcinogen]: 50 UG/ML IN DRINKING WATER FOR 25 WK","12/19 (63%), 10/20 (50%), 21%, not calculated"
